Results published in patent publication US10294202B2, “Pyrrolidinones as herbicides” (FMC Corporation, priority 2013, dated 2019).

Experiments:
Assay in all cases: Test D pre-/postemergence herbicide test
[1] = test system: oat, wild; type: in vivo, Avena fatua; settings: for Plant response rating: Postemergence, Oat, Wild, scale 0 to 100; for Plant response rating, Oat, Wild: Preemergence, scale 0 to 100 (0 no effect, 100 complete control)
Outline: (§1)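 Test chemicals, formulated in a non-phytotoxic solvent mixture with surfactant, are sprayed preemergence onto seeds in silt loam and postemergence onto plants of 2–18 cm. Plants are held in a controlled growth environment for 7 to 21 days, then rated visually versus controls (0–100).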

[2] = test system: kochia; type: in vivo, Kochia scoparia; settings: for Plant response rating: Kochia, scale 0 to 100; for Plant response rating, Kochia: scale 0 to 100 (0 no effect, 100 complete control)
Description: (§2) Seeds of plant species selected from bluegrass (annual bluegrass, Poa annua), blackgrass (Alopecurus myosuroides), canarygrass (littleseed canarygrass, Phalaris minor), chickweed (common chickweed, Stellaria media), galium (catchweed bedstraw, Galium aparine), bromegrass, downy (downy bromegrass, Bromus tectorum), field poppy (Papaver rhoeas), field violet (Viola arvensis), foxtail, green (green foxtail, Setaria viridis), deadnettle (henbit deadnettle, Lamium amplexicaule), ryegrass, Italian (Italian ryegrass, Lolium multiflorum), kochia (Kochia scoparia), lambsquarters (Chenopodium album), oilseed rape (Brassica napus), pigweed (Amaranthus retroflexus), chamomile (scentless chamomile, Matricaria inodora), Russian thistle (Salsola kali), speedwell (bird's-eye speedwell, Veronica persica), barley, spring (spring barley, Hordeum vulgare), wheat, spring (spring wheat, Triticum aestivum), buckwheat, wild (wild buckwheat, Polygonum convolvulus), mustard, wild (wild mustard, Sinapis arvensis), oat, wild (wild oat, Avena fatua), radish, wild (wild radish, Raphanus raphanistrum), […]), barley, winter (winter barley, Hordeum vulgare), and wheat, winter (winter wheat, Triticum aestivum) were planted into a silt loam soil and treated preemergence with test chemicals formulated in a non-phytotoxic solvent mixture which included a surfactant. At the same time, these species were planted in pots containing Redi-Earth® planting medium (Scotts Company, 14111 Scottslawn Road, Marysville, Ohio 43041) comprising spaghnum peat moss, vermiculite, wetting agent and starter nutrients and treated with postemergence applications of the test chemicals formulated in the same manner. Plants ranged in height from 2 to 18 cm (1- to 4-leaf stage). Treated plants and controls were maintained in a controlled growth environment for 7 to 21 days after which time all species were compared to controls and visually evaluated. Plant response ratings, summarized in Table D, are based on a scale of 0 to 100 where 0 is no effect and 100 is complete control. A dash (-) response means no test result.

[3] = test system: chickweed; type: in vivo, Stellaria media; settings: for Plant response rating: Chickweed, scale 0 to 100; for Plant response rating, Chickweed: scale 0 to 100 (0 no effect, 100 complete control)
Description: as §2

[4] = test system: windgrass; type: in vivo, Apera spica-venti; settings: for Plant response rating: Postemergence, Windgrass, scale 0 to 100; for Plant response rating, Windgrass: Preemergence, scale 0 to 100 (0 no effect, 100 complete control)
Outline: as §1

[5] = test system: wheat, spring; type: in vivo, Triticum aestivum; settings: for Plant response rating: Postemergence, Wheat, Spring, scale 0 to 100; for Plant response rating, Wheat, Spring: Preemergence, scale 0 to 100 (0 no effect, 100 complete control)
Outline: as §1

[6] = test system: wheat, winter; type: in vivo, Triticum aestivum; settings: for Plant response rating: Postemergence, Wheat, Winter, scale 0 to 100; for Plant response rating, Wheat, Winter: Preemergence, scale 0 to 100 (0 no effect, 100 complete control)
Outline: as §1

[7] = test system: chamomile; type: in vivo, Matricaria inodora; settings: for Plant response rating: Chamomile, scale 0 to 100; for Plant response rating, Chamomile: scale 0 to 100 (0 no effect, 100 complete control)
Outline: as §1

## O=C1NCC(c2ccc(Cl)c(F)c2)C1C(=O)Nc1cccc(F)c1F (stereo not shown) [Compound 52]
[1]; 16 g ai/ha
  Plant response rating: 0
  Plant response rating, Oat, Wild: 0
[1]; 31 g ai/ha
  Plant response rating: 0
  Plant response rating, Oat, Wild: 0
[1]; 62 g ai/ha
  Plant response rating: 0
  Plant response rating, Oat, Wild: 0
[1]; 125 g ai/ha
  Plant response rating: 0
  Plant response rating, Oat, Wild: 0
[1]; 250 g ai/ha
  Plant response rating: 0
  Plant response rating, Oat, Wild: 0
[2]; Postemergence, 16 g ai/ha
  Plant response rating: 0
[2]; Postemergence, 31 g ai/ha
  Plant response rating: 0
[2]; Postemergence, 62 g ai/ha
  Plant response rating: 20
[2]; Postemergence, 125 g ai/ha
  Plant response rating: 25
[2]; Postemergence, 250 g ai/ha
  Plant response rating: 35
[2]; Preemergence, 62 g ai/ha
  Plant response rating, Kochia: 20
[2]; Preemergence, 16 g ai/ha
  Plant response rating, Kochia: 0
[2]; Preemergence, 31 g ai/ha
  Plant response rating, Kochia: 20
[2]; Preemergence, 125 g ai/ha
  Plant response rating: 20
[2]; Preemergence, 250 g ai/ha
  Plant response rating: 40
[3]; Postemergence, 16 g ai/ha
  Plant response rating: 0
[3]; Postemergence, 31 g ai/ha
  Plant response rating: 0
[3]; Postemergence, 62 g ai/ha
  Plant response rating: 10
[3]; Postemergence, 125 g ai/ha
  Plant response rating: 15
[3]; Postemergence, 250 g ai/ha
  Plant response rating: 25
[4]; 16 g ai/ha
  Plant response rating: 0
  Plant response rating, Windgrass: 0
[4]; 31 g ai/ha
  Plant response rating: 0
  Plant response rating, Windgrass: 0
[4]; 62 g ai/ha
  Plant response rating: 0
  Plant response rating, Windgrass: 0
[4]; 125 g ai/ha
  Plant response rating: 0
  Plant response rating, Windgrass: 40
[4]; 250 g ai/ha
  Plant response rating: 0
  Plant response rating, Windgrass: 60
[5]; 16 g ai/ha
  Plant response rating: 0
  Plant response rating, Wheat, Spring: 0
[5]; 31 g ai/ha
  Plant response rating: 0
  Plant response rating, Wheat, Spring: 0
[5]; 62 g ai/ha
  Plant response rating: 0
  Plant response rating, Wheat, Spring: 0
[5]; 125 g ai/ha
  Plant response rating: 0
  Plant response rating, Wheat, Spring: 0
[5]; 250 g ai/ha
  Plant response rating: 0
  Plant response rating, Wheat, Spring: 0
[6]; 16 g ai/ha
  Plant response rating: 0
  Plant response rating, Wheat, Winter: 0
[6]; 31 g ai/ha
  Plant response rating: 0
  Plant response rating, Wheat, Winter: 0
[6]; 62 g ai/ha
  Plant response rating: 0
  Plant response rating, Wheat, Winter: 0
[6]; 125 g ai/ha
  Plant response rating: 0
  Plant response rating, Wheat, Winter: 0
[6]; 250 g ai/ha
  Plant response rating: 0
  Plant response rating, Wheat, Winter: 10
[7]; Postemergence, 16 g ai/ha
  Plant response rating: 0
[7]; Postemergence, 31 g ai/ha
  Plant response rating: 0
[7]; Postemergence, 62 g ai/ha
  Plant response rating: 0
[7]; Postemergence, 125 g ai/ha
  Plant response rating: 20
[7]; Postemergence, 250 g ai/ha
  Plant response rating: 20
[7]; Preemergence, 62 g ai/ha
  Plant response rating, Chamomile: 75
[7]; Preemergence, 16 g ai/ha
  Plant response rating, Chamomile: 20
[7]; Preemergence, 31 g ai/ha
  Plant response rating, Chamomile: 20
[7]; Preemergence, 125 g ai/ha
  Plant response rating: 75
[7]; Preemergence, 250 g ai/ha
  Plant response rating: 80

## O=C1NCC(c2ccc(C(F)(F)F)cc2)C1C(=O)Nc1ccccc1F (stereo not shown) [Compound 231]
[1]; 31 g ai/ha
  Plant response rating: 5
  Plant response rating, Oat, Wild: 20
[1]; 62 g ai/ha
  Plant response rating: 10
  Plant response rating, Oat, Wild: 20
[1]; 125 g ai/ha
  Plant response rating: 10
  Plant response rating, Oat, Wild: 25
[1]; 250 g ai/ha
  Plant response rating: 10
  Plant response rating, Oat, Wild: 30
[2]; Postemergence, 31 g ai/ha
  Plant response rating: 55
[2]; Postemergence, 62 g ai/ha
  Plant response rating: 60
[2]; Postemergence, 125 g ai/ha
  Plant response rating: 60
[2]; Postemergence, 250 g ai/ha
  Plant response rating: 65
[2]; Preemergence, 62 g ai/ha
  Plant response rating, Kochia: 20
[2]; Preemergence, 125 g ai/ha
  Plant response rating, Kochia: 80
[2]; Preemergence, 31 g ai/ha
  Plant response rating, Kochia: 0
[2]; Preemergence, 250 g ai/ha
  Plant response rating: 85
[3]; Postemergence, 31 g ai/ha
  Plant response rating: 25
[3]; Postemergence, 62 g ai/ha
  Plant response rating: 80
[3]; Postemergence, 125 g ai/ha
  Plant response rating: 80
[3]; Postemergence, 250 g ai/ha
  Plant response rating: 80
[3]; Preemergence, 62 g ai/ha
  Plant response rating, Chickweed: 85
[3]; Preemergence, 125 g ai/ha
  Plant response rating, Chickweed: 95
[3]; Preemergence, 31 g ai/ha
  Plant response rating, Chickweed: 75
[3]; Preemergence, 250 g ai/ha
  Plant response rating: 90
[4]; 31 g ai/ha
  Plant response rating: 0
  Plant response rating, Windgrass: 55
[4]; 62 g ai/ha
  Plant response rating: 5
  Plant response rating, Windgrass: 70
[4]; 125 g ai/ha
  Plant response rating: 0
  Plant response rating, Windgrass: 75
[4]; 250 g ai/ha
  Plant response rating: 15
  Plant response rating, Windgrass: 85
[5]; 31 g ai/ha
  Plant response rating: 0
  Plant response rating, Wheat, Spring: 0
[5]; 62 g ai/ha
  Plant response rating: 0
  Plant response rating, Wheat, Spring: 5
[5]; 125 g ai/ha
  Plant response rating: 0
  Plant response rating, Wheat, Spring: 0
[5]; 250 g ai/ha
  Plant response rating: 0
  Plant response rating, Wheat, Spring: 20
[6]; 31 g ai/ha
  Plant response rating: 0
  Plant response rating, Wheat, Winter: 5
[6]; 62 g ai/ha
  Plant response rating: 0
  Plant response rating, Wheat, Winter: 10
[6]; 125 g ai/ha
  Plant response rating: 0
  Plant response rating, Wheat, Winter: 15
[6]; 250 g ai/ha
  Plant response rating: 0
  Plant response rating, Wheat, Winter: 25
[7]; Postemergence, 31 g ai/ha
  Plant response rating: 20
[7]; Postemergence, 62 g ai/ha
  Plant response rating: 25
[7]; Postemergence, 125 g ai/ha
  Plant response rating: 50
[7]; Postemergence, 250 g ai/ha
  Plant response rating: 50
[7]; Preemergence, 62 g ai/ha
  Plant response rating, Chamomile: 75
[7]; Preemergence, 125 g ai/ha
  Plant response rating, Chamomile: 80
[7]; Preemergence, 31 g ai/ha
  Plant response rating, Chamomile: 75
[7]; Preemergence, 250 g ai/ha
  Plant response rating: 100
